For this experiment, the target named is T1, aromatase (Homo sapiens, UniProt P11511).
T1 construct: This supernatant was subjected to an ultracentrifugation stage for 90 minutes at 105,000 g to obtain the microsomal deposit; from tissue; host or cells: human placenta, microsomes
T1 sequence (P11511 1-503): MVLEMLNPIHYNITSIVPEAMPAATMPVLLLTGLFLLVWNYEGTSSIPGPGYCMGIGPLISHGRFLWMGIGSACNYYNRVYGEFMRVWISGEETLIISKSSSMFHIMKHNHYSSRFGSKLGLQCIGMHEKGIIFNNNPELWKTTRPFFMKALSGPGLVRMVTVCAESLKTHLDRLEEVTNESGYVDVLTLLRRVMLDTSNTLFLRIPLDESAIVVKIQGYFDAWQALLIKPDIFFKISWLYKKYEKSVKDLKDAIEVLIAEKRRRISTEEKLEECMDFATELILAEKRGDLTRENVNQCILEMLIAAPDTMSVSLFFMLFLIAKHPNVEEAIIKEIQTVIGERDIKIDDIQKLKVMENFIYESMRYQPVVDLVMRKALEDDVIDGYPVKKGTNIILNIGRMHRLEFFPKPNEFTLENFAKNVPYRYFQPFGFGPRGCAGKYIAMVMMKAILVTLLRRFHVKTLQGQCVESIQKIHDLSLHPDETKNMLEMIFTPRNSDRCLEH
As to the kind of experiment: Inhibition of aromatase in placental microsomes (measurement of the CI50). The following applies: human placental microsomes (25 microgramms of proteins per test); 60 nM Androstenedione with 1β-2β-(H^3)-Androstenedione; NADPH; pH=7.2; 37° C., 10 minutes; tritiated water release; read-out: CI50 (concentration of the inhibitor necessary to reduce the enzymatic activity by 50%). In kind it is biochemical. As for the experimental part:
Inhibition dependent on the concentration (measurement of the CI50 =concentration of the inhibitor necessary to reduce the enzymatic activity by 50%).
Human placentas were used which were washed one hour at most after delivery, then perfused with physiological serum (5 liters) via the umbilical vein, then deep-frozen at -40° C.
1) Obtaining the placental microsomes
The placentas were thawed out at 4° C., then homogenized (1:3) in a 10 mM phosphate buffer, pH=7.0 containing 100 milimoles of potassium chloride (KCl), 10 millimoles of dithiothreitol (DTT), 10 millimoles of ethylenediaminetetra-acetic acid (EDTA), 40 millimoles of nicotinamide and 250 millimoles of sucrose. The homogenates were then subjected to different phases of centrifugation until a "9000 g" supernatant was obtained (corresponding to cytosol and to endosplasmic reticulum). […] The protein concentration of the microsomal suspension was determined by the BRADFORD method [BRADFORD, Anal. Biochem., Voml. […]
Then the enzymatic reaction was very rapidly initiated by the addition of 10 microliters of reduced nicotinamide adenine dinucleotide phosphate (NADPH) solubilized in water. […] After centrifugation, and for each tube, 100 microliters of supernatant was removed and counted in the presence of a scintillating liquid. […]

Molecules are shown by their SMILES.

For `CC12CC=C3C(CCC4=CC(=O)CCC43CC=O)C1CCC2=O` (stereo not shown) [Example 3, ^4,9(11) -androstadiene-3,17-dione-19-carboxaldehyde], the IC50 is 85 nM.

These data come from patent US5081114A, “Steroids” (Roussel Uclaf, priority 1989, dated 1992).
